# Patent US10987366B2, “Methods and compositions for protection of cells and tissues from computed tomography radiation” (The University of Chicago, priority 2010, dated 2021)
# How the values were obtained:
# [1] = system: RKO36 cells; assay: GFP direct repeat assay of delayed hyperrecombination (GFP+/- colonies); assay type: cell-based, human
# Excerpt: Gene conversion can produce a local loss of heterozygosity (LOH) as well as deletions and inversions at linked repeats and translocations (Nickoloff, 2002). The inventor has utilized a green fluorescence protein (GFP)-based assay using human RKO-derived cells to study the role of delayed hyper-recombination in radiation-induced genomic instability (Huang et al., 2004). A GFP direct repeat homologous recombination substrate is incorporated in RKO cells.
# Genomic instability can be measured by analysis of delayed hyperrecombination and mutation/deletion at the GFP direct repeat substrate. GFP-RKO cells can be GFP− or GFP+. When these cells are plated, colonies arising from single cells are either homogenously colorless (GFP−) or green (GFP+). […] Mixed colonies arise by delayed hyperrecombination and can easily be scored using the criteria of having at least >4 cells per colony having an altered fluorescent phenotype. The frequency of induced instability can be calculated as the number of GFP+/− colonies per total surviving colonies scored.
# Genomic instability was evaluated in RKO36 cells by analysis of delayed hyperrecombination and mutation/deletion at the GFP direct repeat substrate. […] The frequency of induced instability is calculated as the number of GFP+/− colonies per total surviving colonies scored (Huang et al., 2004). […]
# [2] = system: RKO36 cells; assay: Micronuclei formation in irradiated RKO36 cells; assay type: cell-based, human
# Procedure: Under the treatment conditions in which cells were exposed to WR1065 either 30 min before or 3 h following irradiation the protective effect is the result of a direct interaction between the thiol taken up by the cells and the damage induced by radiation. This direct protective effect disappeared when the drug was added 6 h following irradiation. However, when cells were exposed to the thiol 24 h prior to irradiation to allow for the induction of elevated MnSOD enzyme levels, a protective effect was again observed ([…]). In contrast to the data described in FIG. 4A, the protection described in FIG. 4B was mediated not directly by thiol action (Grdina et al., 1995) but as a result of a thiol-induced adaptive response mediated through the activation of NFκB resulting in the elevation of MnSOD activity (Murley et al., 2002; Murley et al., 2004; Murley et al., 2006; Murley et al., 2007; Murley et al., 2008). For comparison, a radiation-induced adaptive response was investigated by first exposing RKO36 cells to 10 cGy and then challenging with a 2 Gy dose 0, 4, 8, 12, 16, 20, and 24 h later (see FIG. 5).
smiles,measurement,setting,value
"NCCCNCCS [WR1065, 2-[(aminopropyl)amino]ethanethiol]",frequency of GFP+/- colonies,"[1]; 4 mM WR1065 for 30 min, no irradiation, P=0.02 vs non-WR1065 irradiated cells (2.7%)",1.1%
same,frequency of GFP+/- colonies,"[1]; 10 cGy given 24 h following 4 mM WR1065 for 30 min, P=0.05 vs non-WR1065 irradiated cells (2.7%)",1.6%
same,"micronuclei formation, thiol-induced adaptive response",[2]; 2 Gy challenge 24 h following WR1065 exposure,reduction of micronuclei formation to unirradiated background levels
same,frequency of micronuclei formation,"[2]; 2 Gy, WR1065 30 min following irradiation (FIG. 4B)",significantly reduced
same,frequency of micronuclei formation,"[2]; 2 Gy, WR1065 30 min prior to irradiation (FIG. 4A)",significantly reduced
same,frequency of micronuclei formation,"[2]; 2 Gy, WR1065 1 h following irradiation (FIG. 4B)",significantly reduced
same,frequency of micronuclei formation,"[2]; 2 Gy, WR1065 2 h following irradiation (FIG. 4B)",significantly reduced
same,frequency of micronuclei formation,"[2]; 2 Gy, WR1065 3 h following irradiation (FIG. 4B)",significantly reduced
same,frequency of micronuclei formation,"[2]; 2 Gy, WR1065 24 h prior to irradiation (FIG. 4A)",significantly reduced
same,direct protective effect against micronuclei formation,"[2]; 2 Gy, drug added 6 h following irradiation",disappeared
